Data reported in patent US4871748A, “Phenylpropargylamine derivatives” (May & Baker Limited, priority 1984, dated 1989).

Test: Acute Oral Toxicity in Mice (Laboratory Strain)
Conditions: mouse, in vivo, aqueous suspension, mg/kg animal body weight, observed until no deaths for at least three days
Method: Acute Oral Toxicity in Mice (Laboratory Strain)
Groups of mice were dosed orally with graded doses of the test compound in aqueous suspension and observed until there had been no deaths for at least three days. The acute oral LD50, that is to say the dose in mg/kg animal body weight necessary to kill 50% of the mice, was determined from the numbers of animals for each dose which died during the observation period by reference to published tables.

SMILES | LD50
CC(C)(CO)C1CCN(CC#Cc2cc(C(F)(F)F)cc(C(F)(F)F)c2)CC1.O=[N+]([O-])O [1 (as nitrate), 1-(3,5-bistrifluoromethylphenyl)-3-[4-(1,1-dimethyl-2-hydroxyethyl)piperidino]prop-1-yne nitrate] | 72 mg/kg
COCC(C)(C)C1CCN(CC#Cc2cc(C(F)(F)F)cc(C(F)(F)F)c2)CC1.Cl [2 (as hydrochloride), 1-(3,5-bistrifluoromethylphenyl)-3-[4-(1,1-dimethyl-2-methoxyethyl)piperidino]prop-1-yne hydrochloride] | 68 mg/kg
CC(=O)OCC(C)(C)C1CCN(CC#Cc2cc(C(F)(F)F)cc(C(F)(F)F)c2)CC1.Cl [3 (as hydrochloride), 1-(3,5-bistrifluoromethylphenyl)-3-[4-(1,1-dimethyl-2-acetyloxyethyl)piperidino]prop-1-yne hydrochloride] | 68 mg/kg
CC(C)(C=O)C1CCN(CC#Cc2cc(C(F)(F)F)cc(C(F)(F)F)c2)CC1.Cl [4 (as hydrochloride), 1-(3,5-bistrifluoromethylphenyl)-3-[4-(1,1-dimethyl-2-oxoethyl)piperidino]prop-1-yne hydrochloride] | 68 mg/kg
CC(C)(CO)C1CCN(CC#Cc2cc(C(F)(F)F)cc(C(F)(F)F)c2)CC1.Cl [1 (as hydrochloride), 1-(3,5-bistrifluoromethylphenyl)-3-[4-(1,1-dimethyl-2-hydroxyethyl)piperidino]-prop-1yne hydrochloride] | 62 mg/kg
CC(=O)O.CC(C)(CO)C1CCN(CC#Cc2cc(C(F)(F)F)cc(C(F)(F)F)c2)CC1 [1 (as acetate), 1-(3,5-bistrifluoromethylphenyl)-3-[4-(1,1-dimethyl-2-hydroxyethyl)piperidino]prop-1-yne acetate] | 95 mg/kg
CC(C)(CO)C1CCN(CC#Cc2cc(C(F)(F)F)cc(C(F)(F)F)c2)CC1 [1 (as free base), 1-(3,5-bistrifluoromethylphenyl)-3-[4-(1,1-dimethyl-2-hydroxyethyl)piperidino]prop-1-yne] | 78 mg/kg
CC(C)(CO)C1CCN(CC#Cc2cc(C(F)(F)F)cc(C(F)(F)F)c2)CC1.NS(=O)(=O)O [1 (as sulphamate), 1-(3,5-bistrifluoromethylphenyl)-3-[4-(1,1-dimethyl-2-hydroxyethyl)piperidino]prop-1-yne sulphamate] | 72 mg/kg
